Test results reported in ChEMBL document CHEMBL5537115, “New broad-spectrum and potent antibacterial agents with dual-targeting mechanism: Promoting FtsZ polymerization and disrupting bacterial membranes” (Eur J Med Chem, 2024).
Active and inactive are the calls of the source. The rule behind the calls is not given here.

How the values were obtained:
Staphylococcus aureus [1] = assay: Selectivity ratio of MBC for Staphylococcus aureus clinical isolate to MIC for Staphylococcus aureus clinical isolate; format: functional
Escherichia coli [2] = assay: Disruption of outer membrane in Escherichia coli ATCC25922 measured after 10 mins by NPN dye based analysis; format: functional, organism-based; settings: dose 4-16 µg/ml
[3] = Hemolytic activity in mouse erythrocytes at 16 ug/ml incubated for 1 hr by absorbance based assay; format: toxicity, cell-based, Erythrocyte; settings: at 16 µg/mL, read-out: Activity
Staphylococcus aureus [4] = assay: Antibacterial activity against erythromycin-susceptible Staphylococcus aureus ATCC25923 assessed as bacterial growth inhibition incubated for 20 hrs by CLSI based broth microdilution method; format: functional
[5] = molecular target: T1, Cell division protein FtsZ (Bacillus subtilis) (UniProt A5Z1V5); assay: Induction of FtsZ polymerization in Bacillus subtilis preincubated for 10 mins followed by GTP addition measured upto 30 mins by absorbance based assay; settings: dose 2.5-10 µg/ml, time 40.0 min
T1 sequence (whole entry): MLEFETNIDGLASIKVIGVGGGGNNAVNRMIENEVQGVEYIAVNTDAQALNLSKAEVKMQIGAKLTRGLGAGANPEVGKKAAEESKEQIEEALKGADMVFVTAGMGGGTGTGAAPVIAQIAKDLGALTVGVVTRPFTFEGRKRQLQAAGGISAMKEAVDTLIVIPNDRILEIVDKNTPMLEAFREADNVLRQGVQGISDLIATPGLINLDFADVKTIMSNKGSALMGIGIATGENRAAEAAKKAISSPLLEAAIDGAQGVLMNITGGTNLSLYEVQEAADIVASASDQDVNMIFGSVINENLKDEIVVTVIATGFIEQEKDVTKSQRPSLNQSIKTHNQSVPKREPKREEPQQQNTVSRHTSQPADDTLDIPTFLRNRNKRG

Acinetobacter baumannii [6] = assay: Selectivity ratio of MBC for Acinetobacter baumannii ATCC19606 to MIC for Acinetobacter baumannii ATCC19606; format: functional
[7] = molecular target: T1, Cell division protein FtsZ (Bacillus subtilis); assay: Induction of FtsZ polymerization in Bacillus subtilis at 2.5 to 10 ug/ml preincubated with compound followed by GTP addition by absorbance based assay; settings: dose 2.5-10 µg/ml, time 40.0 min, TDE = time-dependent effect
Bacillus subtilis [8] = assay: Antibacterial activity against penicillin-susceptible Bacillus subtilis ATCC9372 incubated for 18 to 24 hrs; format: functional; settings: time 18-24 hrs
Staphylococcus aureus [9] = assay: Inhibition of biofilm formation of Staphylococcus aureus ATCC25923 at 0.5 ug/ml incubated for 20 hrs by crystal violet staining based analysis relative to control; format: functional
Staphylococcus aureus [10] = assay: Antibacterial activity against erythromycin-susceptible Staphylococcus aureus ATCC25923 incubated for 18 to 24 hrs; format: functional; settings: time 18-24 hrs
Staphylococcus aureus [11] = assay: Antibacterial activity against penicillin-resistant Staphylococcus aureus ATCC31007 assessed as bacterial growth inhibition incubated for 20 hrs by CLSI based broth microdilution method; format: functional
Staphylococcus aureus [12] = assay: Induction of membrane potential depolarization in Staphylococcus aureus ATCC25923 measured after 20 mins by diSC35 dye based spectroscopy; format: functional, organism-based
Enterococcus faecalis [13] = assay: Antibacterial activity against vancomycin-resistant Enterococcus faecalis ATCC51299 assessed as bacterial growth inhibition incubated for 20 hrs by CLSI based broth microdilution method; format: functional
Bacillus subtilis [14] = assay: Antibacterial activity against penicillin-susceptible Bacillus subtilis ATCC9372 assessed as bacterial growth inhibition incubated for 20 hrs by CLSI based broth microdilution method; format: functional
Escherichia coli [15] = assay: Disruption of inner membrane in Escherichia coli ATCC25922 measured after 12 mins by PI staining based analysis; format: functional, organism-based
Escherichia coli [16] = assay: Induction of membrane potential depolarization in Escherichia coli ATCC25922 measured after 20 mins by diSC35 dye based spectroscopy; format: functional, organism-based
Staphylococcus aureus [17] = assay: Antibacterial activity against Staphylococcus aureus clinical isolate incubated for 18 to 24 hrs; format: functional; settings: time 18-24 hrs
Enterococcus faecium [18] = assay: Antibacterial activity against vancomycin-susceptible Enterococcus faecium ATCC19434 assessed as bacterial growth inhibition incubated for 20 hrs by CLSI based broth microdilution method; format: functional
Streptococcus pyogenes [19] = assay: Antibacterial activity against erythromycin-resistant Streptococcus pyogenes 2 clinical isolate assessed as bacterial growth inhibition incubated for 20 hrs by CLSI based broth microdilution method; format: functional
Streptococcus pyogenes [20] = assay: Antibacterial activity against erythromycin-susceptible Streptococcus pyogenes 1 assessed as bacterial growth inhibition incubated for 20 hrs by CLSI based broth microdilution method; format: functional
Enterococcus faecium [21] = assay: Antibacterial activity against vancomycin-resistant Enterococcus faecium ATCC51559 assessed as bacterial growth inhibition incubated for 20 hrs by CLSI based broth microdilution method; format: functional
Staphylococcus aureus [22] = assay: Induction of morphological change in Staphylococcus aureus ATCC25923 assessed as leakage of cell contents at 16 times MIC incubated for 2 hrs by TEM analysis; format: functional, organism-based
Staphylococcus aureus [23] = assay: Induction of morphological change in Staphylococcus aureus ATCC25923 assessed as loss of bacterial membrane integrity at 16 times MIC incubated for 2 hrs by TEM analysis; format: functional, organism-based
Staphylococcus aureus [24] = assay: Antibacterial activity against methicillin-resistant Staphylococcus aureus ATCC43300 assessed as bacterial growth inhibition incubated for 20 hrs by CLSI based broth microdilution method; format: functional
Escherichia coli [25] = assay: Antibacterial activity against penicillin-susceptible Escherichia coli ATCC25922 assessed as bacterial growth inhibition incubated for 20 hrs by CLSI based broth microdilution method; format: functional
Escherichia coli [26] = assay: Antibacterial activity against wild-type Escherichia coli BW25113 assessed as bacterial growth inhibition incubated for 20 hrs by CLSI based broth microdilution method; format: functional
Staphylococcus aureus [27] = assay: Induction of resistance development in Staphylococcus aureus ATCC25923 assessed as fold increase in MIC at 0.5 times MIC measured after 32 days by multi-passage resistance assay relative to control; format: functional; settings: time 32.0 day
[28] = molecular target: T1, Cell division protein FtsZ (Bacillus subtilis); assay: Induction of FtsZ polymerization in Bacillus subtilis assessed as bundling of FtsZ protofilaments at 10 ug/ml preincubated for 15 mins followed by GTP addition measured after 10 mins by TEM analysis; settings: dose 10.0 µg/ml, time 25.0 min
Bacillus pumilus = assay: Antibacterial activity against penicillin-susceptible Bacillus pumilus CMCC63202 assessed as bacterial growth inhibition incubated for 20 hrs by CLSI based broth microdilution method; format: functional
Acinetobacter baumannii [29] = assay: Antibacterial activity against Acinetobacter baumannii ATCC19606 assessed as bacterial growth inhibition incubated for 20 hrs by CLSI based broth microdilution method; format: functional
Enterococcus faecalis [30] = assay: Antibacterial activity against vancomycin-susceptible Enterococcus faecalis ATCC29212 assessed as bacterial growth inhibition incubated for 20 hrs by CLSI based broth microdilution method; format: functional
Klebsiella pneumoniae = assay: Antibacterial activity against Klebsiella pneumoniae ATCC BAA-1902 assessed as bacterial growth inhibition incubated for 20 hrs by CLSI based broth microdilution method; format: functional
Staphylococcus aureus [31] = assay: Inhibition of biofilm formation of Staphylococcus aureus ATCC25923 incubated for 20 hrs by crystal violet staining based analysis; format: functional, organism-based
Staphylococcus aureus [32] = assay: Disruption of inner membrane in Staphylococcus aureus ATCC25923 by PI staining based analysis; format: functional, organism-based; settings: time 12.0 min, TDE = time-dependent effect
Staphylococcus aureus [33] = assay: Antibacterial activity against Staphylococcus aureus ATCC25923 infected in Kunming mouse model assessed as bacterial growth reduction at 25 mg/kg, ip; format: functional, organism-based
Bacillus subtilis [34] = assay: Induction of morphological change in Bacillus subtilis ATCC9372 assessed as increase in cell length at 0.5 times MIC by phase contrast microscopy; format: functional, organism-based
[35] = test system: Staphylococcus epidermidis; assay: Antibacterial activity against penicillin-resistant Staphylococcus epidermidis clinical isolate assessed as bacterial growth inhibition incubated for 20 hrs by CLSI based broth microdilution method; format: functional
[36] = Hemolytic activity in mouse erythrocytes at 8 ug/ml incubated for 1 hr by absorbance based assay; format: toxicity, cell-based, Erythrocyte; settings: at 8 µg/mL, read-out: Activity
Staphylococcus aureus [37] = assay: Antibacterial activity against methicillin-resistant Staphylococcus aureus ATCC43300 incubated for 18 to 20 hrs; format: functional; settings: time 18-20 hrs
Bacillus subtilis [38] = assay: Selectivity ratio of MBC for penicillin-susceptible Bacillus subtilis ATCC9372 to MIC for penicillin-susceptible Bacillus subtilis ATCC9372; format: functional
Escherichia coli [39] = assay: Disruption of inner membrane in Escherichia coli ATCC25922 by PI staining based analysis; format: functional, organism-based; settings: time 12.0 min, TDE = time-dependent effect
Staphylococcus aureus [40] = assay: Selectivity ratio of MBC for erythromycin-susceptible Staphylococcus aureus ATCC25923 to MIC for erythromycin-susceptible Staphylococcus aureus ATCC25923; format: functional
Acinetobacter baumannii [41] = assay: Antibacterial activity against Acinetobacter baumannii ATCC19606 incubated for 18 to 24 hrs; format: functional; settings: time 18-24 hrs
Staphylococcus aureus [42] = assay: Antibacterial activity against Staphylococcus aureus clinical isolate assessed as bacterial growth inhibition incubated for 20 hrs by CLSI based broth microdilution method; format: functional
Staphylococcus aureus [43] = assay: Disruption of inner membrane in Staphylococcus aureus ATCC25923 measured after 12 mins by PI staining based analysis; format: functional, organism-based
Staphylococcus aureus [44] = assay: Selectivity ratio of MBC for methicillin-resistant Staphylococcus aureus ATCC43300 to MIC for methicillin-resistant Staphylococcus aureus ATCC43300; format: functional

In the case of `Cc1ccccc1-c1c[n+](C)c(-c2ccc(C(C)(C)C)cc2)cc1/C=C/c1ccc(C(C)(C)C)cc1.[I-]`, the Ratio (Staphylococcus aureus [1]) is reported as 2, the Activity (Escherichia coli [2]) is reported as “Dose-Dependent Effect” and the hemolysis at 1 h, 16 ug/ml [3] is reported as 18.9%. The MIC (Staphylococcus aureus [4]) was 0.125 µg/mL, the Activity [5] was “Dose-Dependent Effect” and the Ratio (Acinetobacter baumannii [6]) was 4. The Activity [7] was “Tde”, the MBC (Bacillus subtilis [8]) was 4 µg/mL and the inhibition at 0.5 µg/mL (Staphylococcus aureus [9]) was 28.8%. The MBC (Staphylococcus aureus [10]) was 0.5 µg/mL, the MIC (Staphylococcus aureus [11]) was 1 µg/mL and the Activity (Staphylococcus aureus [12]) was “Dose-Dependent Effect”. For the same compound, the MIC (Enterococcus faecalis [13]) was 0.25 µg/mL, the MIC (Bacillus subtilis [14]) was 0.125 µg/mL and the Activity (Escherichia coli [15]) was “Dose-Dependent Effect”. The Activity (Escherichia coli [16]) was “Dose-Dependent Effect”, the MBC (Staphylococcus aureus [17]) was 0.5 µg/mL and the MIC (Enterococcus faecium [18]) was 0.125 µg/mL. It also gave an MIC (Streptococcus pyogenes [19]) of 2 µg/mL, an MIC (Streptococcus pyogenes [20]) of 2 µg/mL and an MIC (Enterococcus faecium [21]) of 0.5 µg/mL. For the same compound, the Activity (Staphylococcus aureus [22]) was “Active”, the Activity (Staphylococcus aureus [23]) was “Active” and the MIC (Staphylococcus aureus [24]) was 0.25 µg/mL. The MIC (Escherichia coli [25]) was 4 µg/mL, the MIC (Escherichia coli [26]) was 2 µg/mL and the fold change (FC) (Staphylococcus aureus [27]) was 2. For the same compound, the Activity [28] was “Active”, the MIC (Bacillus pumilus) was 0.5 µg/mL and the MIC (Acinetobacter baumannii [29]) was 0.5 µg/mL. For the same compound, the MIC (Enterococcus faecalis [30]) was 1 µg/mL, the MIC (Klebsiella pneumoniae) was 4 µg/mL and the inhibition (Staphylococcus aureus [31]) was “Dose-Dependent Effect”. The Activity (Staphylococcus aureus [32]) was “Tde”, the Activity (Staphylococcus aureus [33]) was “Active” and the Activity (Bacillus subtilis [34]) was “Active”. For the same compound, the MIC [35] was 0.5 µg/mL, the hemolysis at 1 h, 8 ug/ml [36] was 8.29% and the MBC (Staphylococcus aureus [37]) was 0.25 µg/mL. For the same compound, the Ratio (Bacillus subtilis [38]) was 32, the Activity (Escherichia coli [39]) was “Tde” and the Ratio (Staphylococcus aureus [40]) was 4. The MBC (Acinetobacter baumannii [41]) was 2 µg/mL, the MIC (Staphylococcus aureus [42]) was 0.25 µg/mL and the Activity (Staphylococcus aureus [43]) was “Dose-Dependent Effect”. It also gave a Ratio (Staphylococcus aureus [44]) of 1.
